Literature values, collected in patent publication US20070259329A1, “Anergy-inducing cellular composition” (BioVerde. Inc., priority 2006, published 2007).
Where two headings read alike, the source gives them in different places.

What was measured:
[1] = test system: T-cells; settings: Sanbongi et al. (1997); cited from earlier work
[2] = test system: antibody-stimulated peripheral blood mononuclear cells; settings: Falchetti et al. (2001), cited from earlier work

| SMILES | proliferative responses of T-cells [1] | cytokine productions ([2]; low concentrations (5-10 ppm)) | cytokine productions ([2]; still lower concentrations (0.625-2.5 ppm)) |
| --- | --- | --- | --- |
| Oc1cc(O)c2c(c1)O[C@H](c1ccc(O)c(O)c1)[C@H](O)C2 [(−)-epicatechin] | inhibited | – | – |
| Oc1ccc(C=Cc2cc(O)cc(O)c2)cc1 [resveratrol] | – | inhibited | enhanced |
